The source of these data is patent US20230337671A1, “DISINFECTANT COMPOSITION” (Helperby Therapeutics Limited, priority 2020, published 2023).

Molecules are shown by their SMILES.

What all share (type): physicochemical
Data set [1] is described as follows: Preparation of 0.03% w/w HT61 solution in demineralised water, UV-Vis check. The note with it: 0.075 g HT61 solid added to 250 ml demineralised water (0.03% w/w). As for the experimental part: (§1) To support the use of a low concentration of HT61 acting as an emollient in an aqueous disinfectant composition, the surface tension, contact angle and hydrophilic lipophilic balance (HLB) of this compound were determined. • Sample Preparation: A 0.03% w/w solution was required for both the contact angle and surface tension measurements. This solution was prepared by adding 0.075 g of the HT61 solid (obtained according to the method set out in WO 2007/054693 A1 discussed above) to 250 ml of demineralised water. Some solid remained in solution so analysis was carried out using UV-Vis Spectroscopy. […] The surface tension of the sample was measured using a DataPhysics DCAT 9 tensionmeter and the Wilhelmy plate method. The measurement was made three times, with the plate being cleaned between each measurement. • The contact angle was measured on the surface of parafilm. A sample of parafilm was wrapped around a glass slide and the protective film removed. The contact angle of the liquid with the parafilm was measured by placing a small (e.g. 2 μl) drop of test liquid (the sample) on the test surface. The profile of the drop was measured as a function of time using a DataPhysics OCA 35. Each liquid was measured three times. The contact angles were determined 2 s, 12 s and 30 s after the drop first touched the surface. […]

Data set [2] is described as follows: Contact angle of a drop on the surface of parafilm (DataPhysics OCA 35). The note with it: 0.03% w/w solution. The procedure: To support the use of a low concentration of HT61 acting as an emollient in an aqueous disinfectant composition, the surface tension, contact angle and hydrophilic lipophilic balance (HLB) of this compound were determined. • Sample Preparation: A 0.03% w/w solution was required for both the contact angle and surface tension measurements. This solution was prepared by adding 0.075 g of the HT61 solid (obtained according to the method set out in WO 2007/054693 A1 discussed above) to 250 ml of demineralised water. Some solid remained in solution so analysis was carried out using UV-Vis Spectroscopy. […] The surface tension of the sample was measured using a DataPhysics DCAT 9 tensionmeter and the Wilhelmy plate method. The measurement was made three times, with the plate being cleaned between each measurement. • The contact angle was measured on the surface of parafilm. A sample of parafilm was wrapped around a glass slide and the protective film removed. The contact angle of the liquid with the parafilm was measured by placing a small (e.g. 2 μl) drop of test liquid (the sample) on the test surface. The profile of the drop was measured as a function of time using a DataPhysics OCA 35. Each liquid was measured three times. The contact angles were determined 2 s, 12 s and 30 s after the drop first touched the surface. For reference, the contact angle of demineralised water was also measured. • The HLB Value was obtained using […] mathematical method (Griffin, W.C., Calculation of HLB Values of Non-Ionic Surfactants, Journal of the Society of Cosmetic Chemists, 1954, 5(4), 249-56): • [formula] • where Mh is the molecular weight of hydrophilic groups (44 gmol^-1) and M is the molecular weight of the whole molecule (380 gmol^-1). • The factor 20 is a scaling factor. Thus a scale of 1 to 20 is generally obtained.

Data set [3] in a line: Surface tension, Wilhelmy plate method (DataPhysics DCAT 9 tensionmeter). The note with it: 0.03% w/w HT61 in demineralised water, assumed saturated; measured three times. The procedure: as §1

Turning to `Cc1nc2ccc(Oc3ccccc3)cc2c2c1CCN2CCc1ccccc1` [HT61, 4-methyl-8-phenoxy-1-(2-phenylethyl)-2,3-dihydro-1H-pyrrolo[3,2-c]quinoline], the “Dissolution of HT61 solid in demineralised water” value in data set [1] is listed as “the solution was saturated”. For the same compound, in data set [2] (2 s after drop touched surface), the “Average Contact Angle @2s” value was found to be 98. For the same compound, the “Average Contact Angle @12s” value in data set [2] (12 s after drop touched surface) came to 96. In addition, in data set [2] (30 s after drop touched surface), the “Average Contact Angle @30s” value was 96. Besides, the “Average Surface Tension” value in data set [3] worked out at 55.7 mN/m.
